Values after ≈ are worked out from the molar mass of the structure shown.
What was measured:
[1] = test system: Trypanosoma brucei brucei; test: Antitrypanosomal activity against Trypanosoma brucei brucei after 48 hrs by alamar blue assay; format: functional, organism-based
HEK293 [2] = test: Cytotoxicity against human HEK293 cells at 70 uM after 48 hrs by alamar blue assay; format: cell-based; conditions: hek293, 48 h
P388 = test: Cytotoxicity against mouse P388 cells; format: functional, cell-based
HEK293 [3] = test: Cytotoxicity against human HEK293 cells at 41 uM after 48 hrs by alamar blue assay; format: cell-based; conditions: hek293, 48 h
[4] = Lipophilicity, log P of the compound; format: physicochemical; conditions: octanol/water
HEK293 [5] = test: Cytotoxicity against human HEK293 cells after 48 hrs by alamar blue assay; format: cell-based; conditions: HEK293, 48 h
[6] = Antimitotic activity in sea urchins assessed as inhibition of fertilized egg cell division; format: functional, Echinoidea
[7] = Selectivity index, ratio of IC50 for human HEK293 cells to IC50 for Trypanosoma brucei brucei; format: toxicity, cell-based; conditions: HEK293 cells versus Trypanosoma brucei brucei, read-out: Ratio IC50
Haemonchus contortus = test: Antiparasitic activity against Haemonchus contortus assessed as inhibition of free-living larval stage; format: functional

SMILES: N=C(N)c1ccc(/N=N/Nc2ccc(C(=N)N)cc2)cc1 [DIMINAZENE]
- IC50 [1]: 0.0701 µM
- Activity (HEK293 [2]): Non-toxic

SMILES: COc1c(Br)cc(Br)c(CCN(C)CC(C)O)c1Br (stereo unspecified) [CONVOLUTAMINE A]
- IC50 (P388): 1.4 µg/mL (≈ 3.04 µM)

SMILES: COc1c(Br)cc(Br)c(CCN2C=[N+](C)CCC2)c1Br [CONVOLUTAMINE J]
- IC50 [1]: 13.7 µM
- Activity (HEK293 [3]): Non-toxic
- logP [4]: 3.9

SMILES: N=C(N)c1ccc(OCCCCCOc2ccc(C(=N)N)cc2)cc1 [PENTAMIDINE]
- IC50 [1]: 0.0151 µM
- IC50 (HEK293 [5]): 71 µM

SMILES: COc1c(Br)cc(Br)c(CCN2COC(C)C2)c1Br (stereo unspecified) [CONVOLUTAMINE D]
- IC50 (P388): 1.4 µg/mL (≈ 3.06 µM)

SMILES: CNCCc1c(Br)cc(Br)c(OC)c1Br [CONVOLUTAMINE F]
- IC50 [6]: 81 µg/mL (≈ 202 µM)

SMILES: COc1c(Br)cc(Br)c(CCNCCCN(C)C)c1Br [CONVOLUTAMINE I]
- IC50 [1]: 1.1 µM
- IC50 (HEK293 [5]): 22 µM
- selectivity ratio [7]: 18.3
- logP [4]: 4.1

SMILES: CNCCc1c(Br)c(Br)c(Br)c(OC)c1OC [CONVOLUTAMINE H]
- LD99 (Haemonchus contortus): 0.2 µg/mL

SMILES: COc1ccc(Br)c(CCN(C)CC(C)O)c1Br (stereo unspecified) [CONVOLUTAMINE B]
- IC50 (P388): 1.4 µg/mL (≈ 3.67 µM)

Reference: ChEMBL document CHEMBL1914350, “Convolutamines I and J, antitrypanosomal alkaloids from the bryozoan Amathia tortusa” (Bioorg Med Chem, 2011)
